According to patent US8173689B2 (Novartis AG, priority 2006, dated 2012):
Where two headings read alike, the source gives them in different places.

Tests used:
[1] = target: T1, cytoplasmic domain of the human CSF-1R (Homo sapiens, UniProt P07333); test: In vitro kinase assay for colony stimulating factor-1 receptor (AlphaScreen); format: biochemical; details: tested at about 1 μM, read-out: CSF-1R percent inhibition
T1 construct: Recombinant protein corresponding to the cytoplasmic domain of the human CSF-1R; purchased Invitrogen Corporation, Carlsbad, Calif; PV3249
T1 sequence (P07333 539-972 limits assumed): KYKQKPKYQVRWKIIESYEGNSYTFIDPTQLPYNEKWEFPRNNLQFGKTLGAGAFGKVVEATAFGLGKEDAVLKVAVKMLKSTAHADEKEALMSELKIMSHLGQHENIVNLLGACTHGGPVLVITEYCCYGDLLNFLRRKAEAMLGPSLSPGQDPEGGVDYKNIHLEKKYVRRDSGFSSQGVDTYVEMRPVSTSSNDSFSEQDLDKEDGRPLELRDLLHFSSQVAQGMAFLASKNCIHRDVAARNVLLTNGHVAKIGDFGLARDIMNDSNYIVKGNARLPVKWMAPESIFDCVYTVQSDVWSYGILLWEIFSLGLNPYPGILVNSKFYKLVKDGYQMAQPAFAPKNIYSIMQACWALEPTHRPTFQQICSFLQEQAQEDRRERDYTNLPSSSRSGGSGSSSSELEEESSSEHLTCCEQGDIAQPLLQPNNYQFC
Procedure: The kinase activity of various protein tyrosine kinases can be measured by providing ATP and a suitable peptide or protein tyrosine-containing substrate, and assaying the transfer of phosphate moiety to the tyrosine residue. Recombinant protein corresponding to the cytoplasmic domain of the human CSF-1R was purchased from Invitrogen Corporation, Carlsbad, Calif. U.S.A. (#PV3249). For each assay, test compounds were serially diluted, starting at 25 μM with 3 fold dilutions, in DMSO in 384 well plates then mixed with an appropriate kinase reaction buffer consisting of 50 mM Hepes, 5 mM MgCl2, 10 mM MnCl2, 0.1% BSA, pH 7.5, 1.0 mM dithiothreitol, 0.01% Tween 80 plus 1 μM ATP. […] Added to the stopped reaction mix was 30 μL of PT66 Alphascreen beads (Perkin Elmer, Boston, Mass., U.S.A.). The reaction was incubated overnight and read on the Envision (Perkin Elmer). Phosphorylated peptide product was measured with the AlphaScreen system (Perkin Elmer) using acceptor beads coated with anti-phosphotyrosine antibody PT66 and donor beads coated with streptavidin that emit a fluorescent signal at the 520-620 nm emission wave length if in close proximity.
CSF-1R kinase was added at final concentration of 4 nM.

kinase domain of cKIT = target: T2, kinase domain of cKIT (Homo sapiens, UniProt P10721); test: Inhibition of cKIT kinase signaling in an in vitro biochemical assay (alphascreen); details: tested at about 1 μM, read-out: cKit percent inhibition
T2 construct: The kinase domain of cKIT was assayed in 50 mM Hepes; purchased Upstate 14-559
T2 sequence (P10721 589-937 limits assumed): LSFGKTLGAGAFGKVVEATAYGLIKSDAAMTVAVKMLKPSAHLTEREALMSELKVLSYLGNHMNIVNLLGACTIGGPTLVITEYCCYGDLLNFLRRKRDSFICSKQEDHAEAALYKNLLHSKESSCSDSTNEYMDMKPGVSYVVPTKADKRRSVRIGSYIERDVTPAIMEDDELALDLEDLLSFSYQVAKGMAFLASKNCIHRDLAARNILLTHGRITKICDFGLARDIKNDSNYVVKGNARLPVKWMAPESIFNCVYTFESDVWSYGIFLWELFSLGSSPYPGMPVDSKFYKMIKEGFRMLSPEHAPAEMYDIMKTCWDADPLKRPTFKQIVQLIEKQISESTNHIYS
Procedure: (§1) The IC50 values for the inhibition of RTKs were determined in the alphascreen format measuring the inhibition by compound of phosphate transfer to a substrate by the respective enzyme. Briefly, the respective RTK domain purchased as human recombinant protein (cKIT Upstate #14-559, PDGFRb Invitrogen #P3082) were incubated with serial dilutions of compound in the presence of substrate and ATP concentrations within 3 times the Km of the enzyme.
(§2) Alphascreen PY20 beads were added to the stopped cKIT reactions and PY20 Ab/Protein A Alphascreen beads were added to the PDGFRβ stopped reactions. Both reactions were incubated overnight and read on the Alphascreen reader.

kinase domain of PDGFRβ = target: T3, kinase domain of PDGFRβ (Homo sapiens, UniProt P09619); test: Inhibition of PDGFRb kinase signaling in an in vitro biochemical assay (alphascreen); details: tested at about 1 μM, read-out: PDGFRβ percent inhibition
T3 construct: The kinase domain of PDGFRβ was assayed in 50 mM Hepes; purchased Invitrogen P3082
T3 sequence (P09619 600-962 limits assumed): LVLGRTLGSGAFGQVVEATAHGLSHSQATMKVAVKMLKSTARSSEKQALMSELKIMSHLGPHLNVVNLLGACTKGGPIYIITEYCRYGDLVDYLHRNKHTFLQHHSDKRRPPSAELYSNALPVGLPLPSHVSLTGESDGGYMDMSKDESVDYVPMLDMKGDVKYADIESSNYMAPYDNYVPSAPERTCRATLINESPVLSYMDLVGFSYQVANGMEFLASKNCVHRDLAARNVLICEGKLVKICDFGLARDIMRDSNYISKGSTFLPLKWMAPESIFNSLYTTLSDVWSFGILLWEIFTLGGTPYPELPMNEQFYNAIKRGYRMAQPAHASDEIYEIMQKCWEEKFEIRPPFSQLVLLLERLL
Procedure: as §1, §2

Compound | inhibition at 1 µM [1] [%] | inhibition at 1 µM (kinase domain of cKIT) [%] | inhibition at 1 µM (kinase domain of PDGFRβ) [%] | inhibition at 1 µM ([1]; compounds of Table 3) [%] | inhibition at 1 µM (kinase domain of cKIT; compounds of Table 3) [%] | inhibition at 1 µM (kinase domain of PDGFRβ; compounds of Table 3) [%]
CNC(=O)c1cc(Oc2ccc3nc(Nc4ccc(Cl)c(C(F)(F)F)c4)sc3c2)ccn1 [Compound 126, 4-[2-(4-Chloro-3-trifluoromethyl-phenylamino)-benzothiazol-6-yloxy]-pyridine-2-carboxylic acid methylamide] | 68 | 83 | 99 | – | – | –
CNC(=O)c1cc(Oc2ccc3nc(NCC(O)COC)sc3c2)ccn1 (stereo not drawn) [Compound 127] | – | – | – | 95 | 0 | 0
CNC(=O)c1cc(Oc2ccc3nc(NC4CCCCCCC4)sc3c2)ccn1 [Compound 129] | – | – | – | 100 | 99 | 99
CNC(=O)c1cc(Oc2ccc3nc(N[C@H]4CC[C@@H](NC(=O)c5ccccc5)CC4)sc3c2)ccn1 [Compound 135] | – | – | – | 75 | 21 | 11
CNC(=O)c1cc(Oc2ccc3nc(N[C@H]4CC[C@@H](NC(=O)[C@@H]5CCCO5)CC4)sc3c2)ccn1 [Compound 136] | – | – | – | 86 | 3 | 0
CNC(=O)c1cc(Oc2ccc3nc(N[C@H]4CC[C@@H](NC(=O)[C@@H]5CCCN5C)CC4)sc3c2)ccn1 [Compound 137] | – | – | – | 71 | 8 | 2
CNC(=O)c1cc(Oc2ccc3nc(N[C@@H]4CCCC[C@H]4OCc4ccccc4)sc3c2)ccn1 [Compound 155, 4-[2-((1R,2R)-2-Benzyloxy-cyclohexylamino)-benzothiazol-6-yloxy]-pyridine-2-carboxylic acid methylamide] | 87 | 0 | 8 | – | – | –
O[C@@H]1CCCC[C@H]1Nc1nc2ccc(Oc3ccnc(C4=CCNCC4)c3)cc2s1 [Compound 161] | – | – | – | 54 | 20 | 26
Cn1nccc1-c1cnccc1Oc1ccc2nc(N[C@@H]3CCCC[C@H]3O)sc2c1 [Example 191] | – | – | – | 45 | 19 | 15
O[C@@H]1CCCC[C@H]1Nc1nc2ccc(Oc3ccnc(Cl)c3)cc2s1 [Example 225, (1R,2R)-2-(6-(2-chloropyridin-4-yloxy)benzo[d]thiazol-2-ylamino)cyclohexanol] | – | – | – | 90 | 21 | 0
N#Cc1cc(Oc2ccc3nc(N[C@@H]4CCCC[C@H]4O)sc3c2)ccn1 [Example 226, 4-(2-((1R,2R)-2-hydroxycyclohexylamino)benzo[d]thiazol-6-yloxy)picolinonitrile] | – | – | – | 80 | 20 | 0
CNC(=O)c1cnccc1Oc1ccc2nc(N[C@@H]3CCCC[C@H]3O)sc2c1 [Example 291, 4-(2-((1R,2R)-2-hydroxycyclohexylamino)benzo[d]thiazol-6-yloxy)-N-methylnicotinamide] | – | – | – | 48 | 4 | 0
CNC(=O)c1cc(Oc2ccc3nc(N[C@H]4CCCC[C@H]4N)sc3c2)ccn1 [Example 292, 4-(2-((1S,2R)-2-aminocyclohexylamino)benzo[d]thiazol-6-yloxy)-N-methylpicolinamide] | – | – | – | 95 | 3 | 0
CNC(=O)c1cc(Oc2ccc3nc(NC4CCCC(N)C4)sc3c2)ccn1 (stereo not drawn) [Example 294, 4-(2-(3-aminocyclohexylamino)benzo[d]thiazol-6-yloxy)-N-methylpicolinamide] | – | – | – | 87 | 1 | 0

Results, then the molecule that gave them:

inhibition at 1 µM [1] [%] | inhibition at 1 µM (kinase domain of cKIT) [%] | inhibition at 1 µM (kinase domain of PDGFRβ) [%] | inhibition at 1 µM ([1]; compounds of Table 3) [%] | inhibition at 1 µM (kinase domain of cKIT; compounds of Table 3) [%] | inhibition at 1 µM (kinase domain of PDGFRβ; compounds of Table 3) [%] | Compound
– | – | – | 85 | 5 | 0 | CNC(=O)c1cc(Oc2ccc3nc(N[C@H]4CCCC[C@H]4NC(C)=O)sc3c2)ccn1 [Example 295, 4-(2-((1S,2R)-2-acetamidocyclohexylamino)benzo[d]thiazol-6-yloxy)-N-methylpicolinamide]
– | – | – | 97 | 1 | 9 | CNC(=O)c1cc(Oc2ccc3nc(NC4CCCC(NC(C)=O)C4)sc3c2)ccn1 (stereo not drawn) [Example 296, 4-(2-(3-acetamidocyclohexylamino)benzo[d]thiazol-6-yloxy)-N-methylpicolinamide]
55 | 0 | 7 | – | – | – | CNC(=O)c1cc(Oc2ccc3nc(N[C@H]4CCCC[C@H]4NC(=O)NC(C)C)sc3c2)ccn1 [Example 301, 4-(2-((1S,2R)-2-(3-isopropylureido)cyclohexyl-amino)benzo[d]thiazol-6-yloxy)-N-methylpicolinamide]
68 | 20 | 0 | – | – | – | CNC(=O)c1cc(Oc2ccc3nc(N[C@@H]4CCCN(C(C)=O)C4)sc3c2)ccn1 [Example 302, (R)-4-(2-(1-acetylpiperidin-3-ylamino)benzo[d]thiazol-6-yloxy)-N-methylpicolinamide]
74 | 24 | 12 | – | – | – | CNC(=O)c1cc(Oc2ccc3nc(N[C@@H]4CCN(C(C)=O)C4)sc3c2)ccn1 [Example 303, (R)-4-(2-(1-acetylpyrrolidin-3-ylamino)benzo[d]thiazol-6-yloxy)-N-methylpicolinamide]
87 | 15 | 7 | – | – | – | CNC(=O)c1cc(Oc2ccc3nc(N[C@H]4CCN(C(C)=O)C4)sc3c2)ccn1 [Example 305, (S)-4-(2-(1-acetylpyrrolidin-3-ylamino)benzo[d]thiazol-6-yloxy)-N-methylpicolinamide]
90 | 15 | 6 | – | – | – | CNC(=O)c1cc(Oc2ccc3nc(NC4CCN(C(C)=O)CC4)sc3c2)ccn1 [Example 307, 4-(2-(1-acetylpiperidin-4-ylamino)benzo[d]thiazol-6-yloxy)-N-methylpicolinamide]
74 | 6 | 13 | – | – | – | CNC(=O)c1cc(Oc2ccc3nc(N[C@H]4CCCC[C@H]4NC(=O)[C@H]4CCCO4)sc3c2)ccn1 [Example 309, N-methyl-4-(2-((1S,2R)-2-((R)-tetrahydrofuran-2-carboxamido)cyclohexylamino)benzo[d]thiazol-6-yloxy)picolinamide]
15 | 13 | 13 | – | – | – | CNC(=O)c1cc(Oc2ccc3nc(N[C@H]4CCCC[C@H]4NC(=O)C(C)C)sc3c2)ccn1 [Example 310, 4-(2-((1S,2R)-2-isobutyramidocyclohexyl-amino)benzo[d]thiazol-6-yloxy)-N-methylpicolinamide]
93 | 22 | 88 | – | – | – | CNC(=O)c1cc(Oc2ccc3nc(N[C@H]4CCCC[C@H]4NC(=O)CC(C)C)sc3c2)ccn1 [Example 311, N-methyl-4-(2-((1S,2R)-2-(3-methylbutyanamido)cyclo-hexylamino)benzo[d]thiazol-6-yloxy)picolinamide]
76 | 0 | 14 | – | – | – | CNC(=O)c1cc(Oc2ccc3nc(N[C@H]4CCCC[C@H]4NC(=O)c4ccccc4)sc3c2)ccn1 [Example 312, 4-(2-((1S,2R)-2-benzamidocyclohexylamino)benzo[d]thiazol-6-yloxy)-N-methylpicolinamide]
